The text below walks through data of patent US20250154141A1 (University of Florida Research Foundation, Incorporated, priority 2021, published 2025).

One experiment concerns MOLT-4. Put plainly: Cell viability assay (MTS) in MOLT-4 cells. The format is cell-based. The settings on record: Homo sapiens, MOLT-4. How it is done:
(§1) Acute lymphoblastic leukemia cells (MOLT-4 and RS4; 11) were incubated with increasing concentrations of Bcl-xL degraders for 48 h. Cell viability was measured by tetrazolium-based MTS assay.

A further experiment has as its system RS4; 11. Put plainly: Cell viability assay (MTS) in RS4; 11 cells. The format is cell-based. The following applies: Homo sapiens, RS4-11. The procedure: as §1
Where [1] appears, read: Table 2, 48 hr, MTS, read-out: Anti-Cancer Activity IC50 (48 hr) MOLT-4.
The mark [2] stands for this setting: Table 2, 48 hr, MTS, read-out: Anti-Cancer Activity IC50 (48 hr) RS4, 11.
Setting [3] is: Table 5, 48 h, read-out: MOLT-4 48 h IC50.
[4] abbreviates: Table 5, 48 h, read-out: RS4 48 h IC50.

As usually defined, the IC50 is the concentration that inhibits the measured activity by half.

Read-outs that look alike come from different tables or passages of the source.

Take `Cc1ncsc1-c1ccc([C@H](C)NC(=O)[C@@H]2C[C@@H](O)CN2C(=O)[C@@H](NC(=O)CCCCCCC(=O)N2CCN(CC3(C)CCC(c4ccc(Cl)cc4)=C(CN4CCN(c5ccc(C(=O)NS(=O)(=O)c6ccc(N[C@H](CCN7CCCCC7CO)CSc7ccccc7)c([N+](=O)[O-])c6)cc5)CC4)C3)CC2)C(C)(C)C)cc1` (stereo partly drawn) [Compound 45, (2S,4R)-1-((2S)-2-(8-(4-((4′-chloro-6-((4-(4-(((4-(((2R)-4-(2-(hydroxymethyl)piperidin-1-yl)-1-(phenylthio)butan-2-yl)amino)-3-nitrophenyl)sulfonyl)carbamoyl)phenyl)piperazin-1-yl)methyl)-4-methyl-2,3,4,5-tetrahydro-[1,1′-biphenyl]-4-yl)methyl)piperazin-1-yl)-8-oxooctanamido)-3,3-dimethylbutanoyl)-4-hydroxy-N—((S)-1-(4-(4-methylthiazol-5-yl)phenyl)ethyl)pyrrolidine-2-carboxamide]: the values for the concentration for half-maximal inhibition (IC50) in the experiment on MOLT-4 (setting [1]) and in the experiment with RS4; 11 (setting [2]) were 100 to 500 nM and 20 to 100 nM, respectively.
On to `Cc1ncsc1-c1ccc([C@H](C)NC(=O)[C@@H]2C[C@@H](O)CN2C(=O)[C@@H](NC(=O)CCCCCCC(=O)N2CCN(CC3(C)CCC(c4ccc(Cl)cc4)=C(CN4CCN(c5ccc(C(=O)NS(=O)(=O)c6ccc(N[C@H](CCN7CCC(O)CC7)CSc7ccccc7)c([N+](=O)[O-])c6)cc5)CC4)C3)CC2)C(C)(C)C)cc1` (stereo partly drawn) [Compound 46, (2S,4R)-1-((2S)-2-(8-(4-((4′-chloro-6-((4-(4-(((4-(((R)-4-(4-hydroxypiperidin-1-yl)-1-(phenylthio)butan-2-yl)amino)-3-nitrophenyl)sulfonyl)carbamoyl)phenyl)piperazin-1-yl)methyl)-4-methyl-2,3,4,5-tetrahydro-[1,1′-biphenyl]-4-yl)methyl)piperazin-1-yl)-8-oxooctanamido)-3,3-dimethylbutanoyl)-4-hydroxy-N—((S)-1-(4-(4-methylthiazol-5-yl)phenyl)ethyl)pyrrolidine-2-carboxamide], for which the 50% inhibitory concentration (IC50) in the experiment on MOLT-4 (setting [1]) is 20 to 100 nM; in the experiment on MOLT-4 (setting [3]), 55.9 nM; with RS4; 11 (setting [2]), below 20 nM; in the experiment on RS4; 11 (setting [4]), 5.8 nM.
As for `Cc1ncsc1-c1ccc([C@H](C)NC(=O)[C@@H]2C[C@@H](O)CN2C(=O)[C@@H](NC(=O)CCCCCCC(=O)N2CCN(CC3(C)CCC(c4ccc(Cl)cc4)=C(CN4CCN(c5ccc(C(=O)NS(=O)(=O)c6ccc(N[C@H](CCN7CCC(CO)CC7)CSc7ccccc7)c([N+](=O)[O-])c6)cc5)CC4)C3)CC2)C(C)(C)C)cc1` (stereo partly drawn) [Compound 47, (2S,4R)-1-((2S)-2-(8-(4-((4′-chloro-6-((4-(4-(((4-(((R)-4-(4-(hydroxymethyl)piperidin-1-yl)-1-(phenylthio)butan-2-yl)amino)-3-nitrophenyl)sulfonyl)carbamoyl)phenyl)piperazin-1-yl)methyl)-4-methyl-2,3,4,5-tetrahydro-[1,1′-biphenyl]-4-yl)methyl)piperazin-1-yl)-8-oxooctanamido)-3,3-dimethylbutanoyl)-4-hydroxy-N—((S)-1-(4-(4-methylthiazol-5-yl)phenyl)ethyl)pyrrolidine-2-carboxamide], the IC50 with MOLT-4 (setting [1]) is 100 to 500 nM; in the experiment on RS4; 11 (setting [2]), 20 to 100 nM.
For the compound `CC(=O)N1CCN(CC[C@H](CSc2ccccc2)Nc2ccc(S(=O)(=O)NC(=O)c3ccc(N4CCN(CC5=C(c6ccc(Cl)cc6)CCC(C)(CN6CCN(C(=O)CCCCCCC(=O)N[C@H](C(=O)N7C[C@H](O)C[C@H]7C(=O)N[C@@H](C)c7ccc(-c8scnc8C)cc7)C(C)(C)C)CC6)C5)CC4)cc3)cc2[N+](=O)[O-])CC1` (stereo partly drawn) [Compound 48, (2S,4R)-1-((2S)-2-(8-(4-((6-((4-(4-(((4-(((R)-4-(4-acetylpiperazin-1-yl)-1-(phenylthio)butan-2-yl)amino)-3-nitrophenyl)sulfonyl)carbamoyl)phenyl)piperazin-1-yl)methyl)-4′-chloro-4-methyl-2,3,4,5-tetrahydro-[1,1′-biphenyl]-4-yl)methyl)piperazin-1-yl)-8-oxooctanamido)-3,3-dimethylbutanoyl)-4-hydroxy-N—((S)-1-(4-(4-methylthiazol-5-yl)phenyl)ethyl)pyrrolidine-2-carboxamide], the half-maximal inhibitory concentration (IC50) in the experiment with MOLT-4 (setting [1]) is 20 to 100 nM; in the experiment with RS4; 11 (setting [2]) it was below 20 nM.
Take `Cc1ncsc1-c1ccc([C@H](C)NC(=O)[C@@H]2C[C@@H](O)CN2C(=O)[C@@H](NC(=O)CCCCCCC(=O)N2CCN(CC3(C)CCC(c4ccc(Cl)cc4)=C(CN4CCN(c5ccc(C(=O)NS(=O)(=O)c6ccc(N[C@H](CCO)CSc7ccccc7)c([N+](=O)[O-])c6)cc5)CC4)C3)CC2)C(C)(C)C)cc1` (stereo partly drawn) [Compound 49, (2S,4R)-1-((2S)-2-(8-(4-((4′-chloro-6-((4-(4-(((4-(((R)-4-hydroxy-1-(phenylthio)butan-2-yl)amino)-3-nitrophenyl)sulfonyl)carbamoyl)phenyl)piperazin-1-yl)methyl)-4-methyl-2,3,4,5-tetrahydro-[1,1′-biphenyl]-4-yl)methyl)piperazin-1-yl)-8-oxooctanamido)-3,3-dimethylbutanoyl)-4-hydroxy-N—((S)-1-(4-(4-methylthiazol-5-yl)phenyl)ethyl)pyrrolidine-2-carboxamide]: the IC50 in the experiment with MOLT-4 (setting [1]) was in the range of 500 to 10000 nM; in the experiment with RS4; 11 (setting [2]) it was 20 to 100 nM.
The like results for `COCC[C@H](CSc1ccccc1)Nc1ccc(S(=O)(=O)NC(=O)c2ccc(N3CCN(CC4=C(c5ccc(Cl)cc5)CCC(C)(CN5CCN(C(=O)CCCCCCC(=O)N[C@H](C(=O)N6C[C@H](O)C[C@H]6C(=O)N[C@@H](C)c6ccc(-c7scnc7C)cc6)C(C)(C)C)CC5)C4)CC3)cc2)cc1[N+](=O)[O-]` (stereo partly drawn) [Compound 50, (2S,4R)-1-((2S)-2-(8-(4-((4′-chloro-6-((4-(4-(((4-(((R)-4-methoxy-1-(phenylthio)butan-2-yl)amino)-3-nitrophenyl)sulfonyl)carbamoyl)phenyl)piperazin-1-yl)methyl)-4-methyl-2,3,4,5-tetrahydro-[1,1′-biphenyl]-4-yl)methyl)piperazin-1-yl)-8-oxooctanamido)-3,3-dimethylbutanoyl)-4-hydroxy-N—((S)-1-(4-(4-methylthiazol-5-yl)phenyl)ethyl)pyrrolidine-2-carboxamide] were, in that order, 500 to 10000 nM and 20 to 100 nM.
For the compound `Cc1ncsc1-c1ccc([C@H](C)NC(=O)[C@@H]2C[C@@H](O)CN2C(=O)[C@@H](NC(=O)CCCCCCC(=O)N2CCN(CC3(C)CCC(c4ccc(Cl)cc4)=C(CN4CCN(c5ccc(C(=O)NS(=O)(=O)c6ccc(N[C@H](CCN7C[C@H]8C[C@@H]7CO8)CSc7ccccc7)c([N+](=O)[O-])c6)cc5)CC4)C3)CC2)C(C)(C)C)cc1` (stereo partly drawn) [Compound 52, (2S,4R)-1-((2S)-2-(8-(4-((6-((4-(4-(((4-(((R)-4-((1R,4R)-2-oxa-5-azabicyclo[2.2.1]heptan-5-yl)-1-(phenylthio)butan-2-yl)amino)-3-nitrophenyl)sulfonyl)carbamoyl)phenyl)piperazin-1-yl)methyl)-4′-chloro-4-methyl-2,3,4,5-tetrahydro-[1,1′-biphenyl]-4-yl)methyl)piperazin-1-yl)-8-oxooctanamido)-3,3-dimethylbutanoyl)-4-hydroxy-N—((S)-1-(4-(4-methylthiazol-5-yl)phenyl)ethyl)pyrrolidine-2-carboxamide], the IC50 with MOLT-4 (setting [1]) is below 20 nM; with MOLT-4 (setting [3]), 15.2 nM; in the experiment on RS4; 11 (setting [2]), below 20 nM; in the experiment on RS4; 11 (setting [4]) it was 2.8 nM.
Turning to `Cc1ncsc1-c1ccc([C@H](C)NC(=O)[C@@H]2C[C@@H](O)CN2C(=O)[C@@H](NC(=O)CCCCCCC(=O)N2CCN(C[C@]3(C)CCC(c4ccc(Cl)cc4)=C(CN4CCN(c5ccc(C(=O)NS(=O)(=O)c6ccc(N[C@H](CCN7CC8CCC7C8)CSc7ccccc7)c([N+](=O)[O-])c6)cc5)CC4)C3)CC2)C(C)(C)C)cc1` (stereo partly drawn) [Compound 53, (2S,4R)-1-((2S)-2-(8-(4-(((4R)-6-((4-(4-(((4-(((2R)-4-(2-azabicyclo[2.2.1]heptan-2-yl)-1-(phenylthio)butan-2-yl)amino)-3-nitrophenyl)sulfonyl)carbamoyl)phenyl)piperazin-1-yl)methyl)-4′-chloro-4-methyl-2,3,4,5-tetrahydro-[1,1′-biphenyl]-4-yl)methyl)piperazin-1-yl)-8-oxooctanamido)-3,3-dimethylbutanoyl)-4-hydroxy-N—((S)-1-(4-(4-methylthiazol-5-yl)phenyl)ethyl)pyrrolidine-2-carboxamide], the values for the IC50 in the experiment with MOLT-4 (setting [1]) and in the experiment on RS4; 11 (setting [2]) were 20 to 100 nM and below 20 nM, respectively.
With `Cc1ncsc1-c1ccc([C@H](C)NC(=O)[C@@H]2C[C@@H](O)CN2C(=O)[C@@H](NC(=O)CCCCC(=O)N2CCC(C3CCN(CC4(C)CCC(c5ccc(Cl)cc5)=C(CN5CCN(c6ccc(C(=O)NS(=O)(=O)c7ccc(N[C@H](CCN8C[C@H]9C[C@@H]8CO9)CSc8ccccc8)c([N+](=O)[O-])c7)cc6)CC5)C4)CC3)CC2)C(C)(C)C)cc1` (some centres unmarked) [Compound 54], the IC50 with MOLT-4 (setting [1]) and in the experiment with RS4; 11 (setting [2]) was below 20 nM throughout.
As to `Cc1ncsc1-c1ccc([C@H](C)NC(=O)[C@@H]2C[C@@H](O)CN2C(=O)[C@@H](NC(=O)CCCCCCC(=O)N2CCN(C[C@]3(C)CCC(c4ccc(Cl)cc4)=C(CN4CCN(c5ccc(C(=O)NS(=O)(=O)c6ccc(N[C@H](CCN7CCCOCC7)CSc7ccccc7)c([N+](=O)[O-])c6)cc5)CC4)C3)CC2)C(C)(C)C)cc1` [Compound 55, (2S,4R)-1-((S)-2-(8-(4-(((R)-6-((4-(4-(((4-(((R)-4-(1,4-oxazepan-4-yl)-1-(phenylthio)butan-2-yl)amino)-3-nitrophenyl)sulfonyl)carbamoyl)phenyl)piperazin-1-yl)methyl)-4′-chloro-4-methyl-2,3,4,5-tetrahydro-[1,1′-biphenyl]-4-yl)methyl)piperazin-1-yl)-8-oxooctanamido)-3,3-dimethylbutanoyl)-4-hydroxy-N—((S)-1-(4-(4-methylthiazol-5-yl)phenyl)ethyl)pyrrolidine-2-carboxamide], the IC50 in the experiment with MOLT-4 (setting [1]) was below 20 nM; with MOLT-4 (Table 4, 48 h, read-out: MOLT-4 48 h IC50), 11 nM; in the experiment on RS4; 11 (setting [2]), below 20 nM; in the experiment with RS4; 11 (Table 4, 48 h, read-out: RS4 48 h IC50), 3.2 nM.
